Measurements as given in patent US8969516B2, “Method of hydrolysis of peptide bond” (priority 2006, dated 2015).

Assay: MALDI-TOF screening of Ni^2+ dependent hydrolysis in a combinatorial peptide library
Type: physicochemical
Conditions: Ni^2+ 2 mM, pH 8.2, 10 mM Tris, score=24/tm
Method in brief: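 MALDI-TOF read-out: appearance of Ser/Thr-X-His-Z-Lys-Phe-Leu-NH2 product signals, plus loss of substrate signals, checked by eye at 2, 4, 6, 8 h. Conditions: 1 mM peptide mixture, 2 mM Ni2+, 10 mM Tris pH 8.2, 37 or 45 °C.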

[1] = CH3CO-Gly-Ala-Ser-X-His-Z-Lys-Phe-Leu-NH2 library, 37° C.
[2] = CH3CO-Gly-Ala-Ser-X-His-Z-Lys-Phe-Leu-NH2 library, 45° C.
[3] = CH3CO-Gly-Ala-Thr-X-His-Z-Lys-Phe-Leu-NH2 library, 37° C.
[4] = CH3CO-Gly-Ala-Thr-X-His-Z-Lys-Phe-Leu-NH2 library, 45° C.

With Ac-GASYHIKFL-NH2 [SYHI] the “hydrolysis score from MALDI-TOF screening” value (“hydrolysis score” for short) [1] was 4 (a score of 4 for detection at 6 hours) and the “hydrolysis score” value [2] was 6 (a score of 6 for detection at 4 hours).

For Ac-GASYHKKFL-NH2 [SYHK], the “hydrolysis score” value [1] was 4 (a score of 4 for detection at 6 hours) and the “hydrolysis score” value [2] was 6 (a score of 6 for detection at 4 hours).

For Ac-GASYHLKFL-NH2 [SYHL], the “hydrolysis score” value [1] was 4 (a score of 4 for detection at 6 hours) and the “hydrolysis score” value [2] was 6 (a score of 6 for detection at 4 hours).

For Ac-GASYHMKFL-NH2 [SYHM], the “hydrolysis score” value [1] was 0 (a score of 0 if no trace of the product of hydrolysis was seen after 8 hours of incubation) and the “hydrolysis score” value [2] was 0 (a score of 0 if no trace of the product of hydrolysis was seen after 8 hours of incubation).

In the case of Ac-GASYHNKFL-NH2 [SYHN], the “hydrolysis score” value [1] is reported as 0 (a score of 0 if no trace of the product of hydrolysis was seen after 8 hours of incubation) and the “hydrolysis score” value [2] is reported as 0 (a score of 0 if no trace of the product of hydrolysis was seen after 8 hours of incubation).

With Ac-GASYHPKFL-NH2 [SYHP] the “hydrolysis score” value [1] was 0 (a score of 0 if no trace of the product of hydrolysis was seen after 8 hours of incubation) and the “hydrolysis score” value [2] was 0 (a score of 0 if no trace of the product of hydrolysis was seen after 8 hours of incubation).

In the case of Ac-GASYHQKFL-NH2 [SYHQ], the “hydrolysis score” value [1] is reported as 0 (a score of 0 if no trace of the product of hydrolysis was seen after 8 hours of incubation) and the “hydrolysis score” value [2] is reported as 0 (a score of 0 if no trace of the product of hydrolysis was seen after 8 hours of incubation).

In the case of Ac-GASYHRKFL-NH2 [SYHR], the “hydrolysis score” value [1] is reported as 4 (a score of 4 for detection at 6 hours) and the “hydrolysis score” value [2] is reported as 6 (a score of 6 for detection at 4 hours).

With Ac-GASYHSKFL-NH2 [SYHS] the “hydrolysis score” value [1] was 0 (a score of 0 if no trace of the product of hydrolysis was seen after 8 hours of incubation) and the “hydrolysis score” value [2] was 0 (a score of 0 if no trace of the product of hydrolysis was seen after 8 hours of incubation).

With Ac-GASYHTKFL-NH2 [SYHT] the “hydrolysis score” value [1] was 0 (a score of 0 if no trace of the product of hydrolysis was seen after 8 hours of incubation) and the “hydrolysis score” value [2] was 0 (a score of 0 if no trace of the product of hydrolysis was seen after 8 hours of incubation).

In the case of Ac-GASYHVKFL-NH2 [SYHV], the “hydrolysis score” value [1] is reported as 6 (a score of 6 for detection at 4 hours) and the “hydrolysis score” value [2] is reported as 4 (a score of 4 for detection at 6 hours).

For Ac-GASYHWKFL-NH2 [SYHW], the “hydrolysis score” value [1] was 6 (a score of 6 for detection at 4 hours) and the “hydrolysis score” value [2] was 6 (a score of 6 for detection at 4 hours).

In the case of Ac-GASYHYKFL-NH2 [SYHY], the “hydrolysis score” value [1] is reported as 3 (a score of 3 for detection at 8 hours) and the “hydrolysis score” value [2] is reported as 4 (a score of 4 for detection at 6 hours).

With Ac-GATAHAKFL-NH2 [TAHA] the “hydrolysis score” value [3] was 0 (a score of 0 if no trace of the product of hydrolysis was seen after 8 hours of incubation) and the “hydrolysis score” value [4] was 0 (a score of 0 if no trace of the product of hydrolysis was seen after 8 hours of incubation).

For Ac-GATAHDKFL-NH2 [TAHD], the “hydrolysis score” value [3] was 0 (a score of 0 if no trace of the product of hydrolysis was seen after 8 hours of incubation) and the “hydrolysis score” value [4] was 0 (a score of 0 if no trace of the product of hydrolysis was seen after 8 hours of incubation).

In the case of Ac-GATAHFKFL-NH2 [TAHF], the “hydrolysis score” value [3] is reported as 0 (a score of 0 if no trace of the product of hydrolysis was seen after 8 hours of incubation) and the “hydrolysis score” value [4] is reported as 0 (a score of 0 if no trace of the product of hydrolysis was seen after 8 hours of incubation).

With Ac-GATAHGKFL-NH2 [TAHG] the “hydrolysis score” value [3] was 0 (a score of 0 if no trace of the product of hydrolysis was seen after 8 hours of incubation) and the “hydrolysis score” value [4] was 0 (a score of 0 if no trace of the product of hydrolysis was seen after 8 hours of incubation).

For Ac-GATAHHKFL-NH2 [TAHH], the “hydrolysis score” value [3] was 0 (a score of 0 if no trace of the product of hydrolysis was seen after 8 hours of incubation) and the “hydrolysis score” value [4] was 0 (a score of 0 if no trace of the product of hydrolysis was seen after 8 hours of incubation).

For Ac-GATAHIKFL-NH2 [TAHI], the “hydrolysis score” value [3] was 0 (a score of 0 if no trace of the product of hydrolysis was seen after 8 hours of incubation) and the “hydrolysis score” value [4] was 0 (a score of 0 if no trace of the product of hydrolysis was seen after 8 hours of incubation).

In the case of Ac-GATAHKKFL-NH2 [TAHK], the “hydrolysis score” value [3] is reported as 0 (a score of 0 if no trace of the product of hydrolysis was seen after 8 hours of incubation) and the “hydrolysis score” value [4] is reported as 0 (a score of 0 if no trace of the product of hydrolysis was seen after 8 hours of incubation).

With Ac-GATAHLKFL-NH2 [TAHL] the “hydrolysis score” value [3] was 0 (a score of 0 if no trace of the product of hydrolysis was seen after 8 hours of incubation) and the “hydrolysis score” value [4] was 0 (a score of 0 if no trace of the product of hydrolysis was seen after 8 hours of incubation).

For Ac-GATAHMKFL-NH2 [TAHM], the “hydrolysis score” value [3] was 0 (a score of 0 if no trace of the product of hydrolysis was seen after 8 hours of incubation) and the “hydrolysis score” value [4] was 0 (a score of 0 if no trace of the product of hydrolysis was seen after 8 hours of incubation).

In the case of Ac-GATAHNKFL-NH2 [TAHN], the “hydrolysis score” value [3] is reported as 0 (a score of 0 if no trace of the product of hydrolysis was seen after 8 hours of incubation) and the “hydrolysis score” value [4] is reported as 0 (a score of 0 if no trace of the product of hydrolysis was seen after 8 hours of incubation).

In the case of Ac-GATAHPKFL-NH2 [TAHP], the “hydrolysis score” value [3] is reported as 0 (a score of 0 if no trace of the product of hydrolysis was seen after 8 hours of incubation) and the “hydrolysis score” value [4] is reported as 0 (a score of 0 if no trace of the product of hydrolysis was seen after 8 hours of incubation).

For Ac-GATAHQKFL-NH2 [TAHQ], the “hydrolysis score” value [3] was 0 (a score of 0 if no trace of the product of hydrolysis was seen after 8 hours of incubation) and the “hydrolysis score” value [4] was 0 (a score of 0 if no trace of the product of hydrolysis was seen after 8 hours of incubation).

For Ac-GATAHRKFL-NH2 [TAHR], the “hydrolysis score” value [3] was 0 (a score of 0 if no trace of the product of hydrolysis was seen after 8 hours of incubation) and the “hydrolysis score” value [4] was 0 (a score of 0 if no trace of the product of hydrolysis was seen after 8 hours of incubation).

With Ac-GATAHSKFL-NH2 [TAHS] the “hydrolysis score” value [3] was 0 (a score of 0 if no trace of the product of hydrolysis was seen after 8 hours of incubation) and the “hydrolysis score” value [4] was 0 (a score of 0 if no trace of the product of hydrolysis was seen after 8 hours of incubation).

With Ac-GATAHTKFL-NH2 [TAHT] the “hydrolysis score” value [3] was 0 (a score of 0 if no trace of the product of hydrolysis was seen after 8 hours of incubation) and the “hydrolysis score” value [4] was 0 (a score of 0 if no trace of the product of hydrolysis was seen after 8 hours of incubation).

For Ac-GATAHVKFL-NH2 [TAHV], the “hydrolysis score” value [3] was 0 (a score of 0 if no trace of the product of hydrolysis was seen after 8 hours of incubation) and the “hydrolysis score” value [4] was 0 (a score of 0 if no trace of the product of hydrolysis was seen after 8 hours of incubation).

For Ac-GATAHYKFL-NH2 [TAHY], the “hydrolysis score” value [3] was 0 (a score of 0 if no trace of the product of hydrolysis was seen after 8 hours of incubation) and the “hydrolysis score” value [4] was 0 (a score of 0 if no trace of the product of hydrolysis was seen after 8 hours of incubation).

In the case of Ac-GATFHAKFL-NH2 [TFHA], the “hydrolysis score” value [3] is reported as 0 (a score of 0 if no trace of the product of hydrolysis was seen after 8 hours of incubation) and the “hydrolysis score” value [4] is reported as 0 (a score of 0 if no trace of the product of hydrolysis was seen after 8 hours of incubation).

For Ac-GATFHDKFL-NH2 [TFHD], the “hydrolysis score” value [3] was 0 (a score of 0 if no trace of the product of hydrolysis was seen after 8 hours of incubation) and the “hydrolysis score” value [4] was 0 (a score of 0 if no trace of the product of hydrolysis was seen after 8 hours of incubation).

In the case of Ac-GATFHEKFL-NH2 [TFHE], the “hydrolysis score” value [3] is reported as 0 (a score of 0 if no trace of the product of hydrolysis was seen after 8 hours of incubation) and the “hydrolysis score” value [4] is reported as 0 (a score of 0 if no trace of the product of hydrolysis was seen after 8 hours of incubation).

In the case of Ac-GATFHFKFL-NH2 [TFHF], the “hydrolysis score” value [3] is reported as 0 (a score of 0 if no trace of the product of hydrolysis was seen after 8 hours of incubation) and the “hydrolysis score” value [4] is reported as 0 (a score of 0 if no trace of the product of hydrolysis was seen after 8 hours of incubation).

For Ac-GATFHGKFL-NH2 [TFHG], the “hydrolysis score” value [3] was 0 (a score of 0 if no trace of the product of hydrolysis was seen after 8 hours of incubation) and the “hydrolysis score” value [4] was 0 (a score of 0 if no trace of the product of hydrolysis was seen after 8 hours of incubation).

In the case of Ac-GATFHHKFL-NH2 [TFHH], the “hydrolysis score” value [3] is reported as 0 (a score of 0 if no trace of the product of hydrolysis was seen after 8 hours of incubation) and the “hydrolysis score” value [4] is reported as 0 (a score of 0 if no trace of the product of hydrolysis was seen after 8 hours of incubation).

For Ac-GATFHKKFL-NH2 [TFHK], the “hydrolysis score” value [3] was 3 (a score of 3 for detection at 8 hours) and the “hydrolysis score” value [4] was 3 (a score of 3 for detection at 8 hours).
